The source of these data is patent US10774053B2, “HIV protease inhibitors” (Gilead Sciences, Inc., priority 2017, dated 2020).

Where two headings read alike, the source gives them in different places. Some results are limits rather than exact numbers.

A short description of data set [1]: Liver microsomal stability, human liver microsomes. The conditions noted are these: for half-life at 1 uM: human, liver microsomes. As to the method: Liver Microsomal Stability Protocol
Test compounds and one control compound (verapamil) were tested in 3 different species in duplicate sets.
Test compound concentration: 1 uM; Protein concentration: 0.5 mg/mL (for dog, rat, and human liver microsomes); Cofactor: NADPH-Regenerating system (NRS) solution; Time-points: 2, 12, 25, 45, and 65 minutes.
Reaction Composition (in Each Incubation Well) Contains:
At an incubation temperature of 37° C., the reaction was started with addition of NADPH Regeneration System, at each time point, 25 uL of the reaction mixture was removed and added to a plate with 225 uL quenching solution (50% MeOH, 25% ACN, 25% H2O, and 200 nM labetalol as internal standard). After plates were vortexed, they were centrifuged for 30 minutes to remove proteins. About 100 μL supernatant was removed to a new plate and diluted with 150 μL water. About 20 μL of the mixture was injected into LC/MS/MS system to monitor the compound's response. In vitro measured t1/2 was used to calculate Clint values.
On the technique in general: Microsomes from liver hold many membrane-bound enzymes, among them those of drug oxidation.

Data set [2] deals with HIV-1 (IIIB) in MT-4 cells. In words: microbe, parasite or virus in culture. The data set is classed as cell-based. The note with it: HIV-1, read-out: MT4 EC50.
A further data set concerns the target recombinant human BACE-1 (Homo sapiens (Human), UniProt P56817). Nature of the data set: Beta-secretase (BACE) inhibition assay, fluorogenic enzymatic assay. Type of data set: biochemical. As to the method:
Beta-Secretase (BACE) Inhibition Assay
Inhibitory potency against β-secretase (BACE) was measured using an enzymatic assay with a fluorogenic readout. 50 nM of recombinant human BACE-1 (R&D Systems) and test compound at one of various concentrations were added to a reaction buffer containing 20 mM sodium acetate at pH 4.8, with 0.06% Triton X-100, and 1% DMSO. […] The total volume of the assay solution was 100 μL. […] The slopes of the progress curves were the measure of reaction rates. Reaction rates were plotted as a function of inhibitor concentration, and the data were fit with a four-parameter logistic fit using Graphpad PRISM software to yield IC50 values.

In the next data set the target is recombinant HIV protease (Human immunodeficiency virus type 1 group M subtype B (isolate HXB2) (HIV-1), UniProt P04585). Nature of the data set: biochemical. Type of data set: biochemical. On the procedure:
HIV Protease Enzyme Inhibition (PI) Activity
Inhibitor potency against HIV protease was measured using an enzymatic assay with a fluorogenic readout. To a reaction buffer containing 100 mM ammonium acetate at pH 5.3, 100 mM NaCl, 1 mM EDTA, 1 mM DTT, 0.25 mg/mL BSA and 1% DMSO were added 10 nM of recombinant HIV protease (concentration based on protein monomer) and test compound at one of various concentrations. […] The total volume of the assay solution was 100 μL. […] The slopes of the progress curves were the measure of reaction rates. Reaction rates were plotted as a function of inhibitor concentration, and the data were fit with a four-parameter logistic fit using Graphpad PRISM software to yield IC50 values.

In data set [3] the test system is single replication cycle recombinant virus containing the protease and reverse transcriptase coding regions of HIV-1 from a patient blood sample. The data set is classed as cell-based. From the text:
Resistance testing was done by Monogram Biosciences using their proprietary PhenoSense HIV assay.

[4] abbreviates: Human immunodeficiency virus 1, IIIB, MT4, MT-4 cells.
[5] abbreviates: recombinant HIV protease, fluorogenic enzymatic assay, read-out: HIV PI IC50.

Sequence of recombinant human BACE-1 (P56817 46-501): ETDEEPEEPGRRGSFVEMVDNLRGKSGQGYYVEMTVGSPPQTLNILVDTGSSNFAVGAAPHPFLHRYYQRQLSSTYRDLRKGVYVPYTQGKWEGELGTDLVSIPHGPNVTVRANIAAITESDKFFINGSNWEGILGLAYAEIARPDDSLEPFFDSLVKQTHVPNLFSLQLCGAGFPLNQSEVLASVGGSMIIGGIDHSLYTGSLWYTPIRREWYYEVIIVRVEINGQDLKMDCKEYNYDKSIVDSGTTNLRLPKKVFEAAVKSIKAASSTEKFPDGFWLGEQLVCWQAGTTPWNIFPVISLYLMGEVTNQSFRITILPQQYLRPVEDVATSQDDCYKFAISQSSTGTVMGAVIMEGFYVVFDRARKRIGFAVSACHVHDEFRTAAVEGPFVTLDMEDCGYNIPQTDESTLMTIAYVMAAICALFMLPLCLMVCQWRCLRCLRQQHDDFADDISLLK

What is called half-life is how long it takes for the measured level to halve. By EC50 is commonly meant the concentration at which the effect is half-maximal. Broadly, the IC50 is the midpoint of a concentration-inhibition curve. `CC(C)(C[C@]1(c2ccc(-c3cnn(C4CC4)n3)cc2)NC(=N)N([C@H](COC(=O)NC2(C(F)(F)F)CC2)c2ccc(Cl)c(-c3ncnn3C(F)F)c2)C1=O)C(F)(F)F` [Compound 152]: the half-life at 1 uM in data set [1] was no less than 6.58 h. Also, in data set [2] (setting [4]), the 50% effective concentration (EC50) was 13 nM. The concentration for half-maximal inhibition (IC50) on recombinant human BACE-1 was greater than 100000 nM.
In data set [1], `CC(C)(C[C@]1(c2ccc(-c3cnn(C4CC4)n3)cc2)NC(=N)N([C@H](COC(=O)NC2(C(F)(F)F)CC2)c2ccc(Cl)c(-n3ncnc3C(F)F)c2)C1=O)C(F)(F)F` [Compound 270] showed a half-life at 1 uM of no less than 6.58 h. In addition, in data set [2] (setting [4]), the EC50 was 19.1 nM. In addition, on recombinant human BACE-1, the IC50 is greater than 100000 nM.
For `C[C@H](C(=O)NC[C@H](c1ccc(Cl)c(-n2ncnc2C(F)F)c1)N1C(=N)N[C@](CC(C)(C)C(F)(F)F)(c2ccc(-c3cnn(C4CC4)n3)cc2)C1=O)C(F)(F)F` [Compound 389] the same measures were no less than 6.58 h, 12.2 nM and greater than 100000 nM.
`CC(C)(C)C[C@]1(c2ccc(-c3cnn(C4CC4)c3)cc2)NC(=N)N([C@H](COC(=O)NC2(C(F)(F)F)CC2)c2ccc(Cl)c(-c3ncnn3C(F)F)c2)C1=O` [Compound 164]: the concentration for a half-maximal effect (EC50) in data set [2] (MT-4 cells) came to 16.5 nM. In addition, the IC50 on recombinant HIV protease (setting [5]) stood at 2.6 nM.
On to `CC(C)(C[C@]1(c2ccc(-c3cnn(C4CC4)n3)cc2)NC(=N)N([C@H](COC(=O)NC2(C(F)F)CC2)c2ccc(Cl)c(-c3ncnn3C(F)F)c2)C1=O)C(F)(F)F` [Compound 155], for which the half-life at 1 uM in data set [1] was no less than 6.58 h. Besides, the EC50 in data set [2] (setting [4]) came out at 9.87 nM. Also, the IC50 on recombinant human BACE-1 is greater than 100000 nM.
In data set [1], `CC(C)(F)C[C@]1(c2ccc(-c3cnn(C4CC4)c3)cc2)NC(=N)N([C@H](COC(=O)NC2(C(F)(F)F)CC2)c2ccc(Cl)c(-c3ncnn3C(F)F)c2)C1=O` [Compound 131] had a half-life at 1 uM of no less than 6.58 h. Moreover, in data set [2] (setting [4]), the EC50 amounted to 20.8 nM. For the same compound, the half-maximal inhibitory concentration (IC50) on recombinant human BACE-1 was greater than 100000 nM.
`CC(C)(C)C[C@]1(c2ccc(-c3cnn(C(F)F)c3)cc2F)NC(=N)N([C@H](COC(=O)NC2(C(F)(F)F)CC2)c2ccc(Cl)c(-n3ncnc3C(F)F)c2)C1=O` [Compound 195] gave a half-life at 1 uM in data set [1] of no less than 6.58 h. In addition, in data set [2] (setting [4]), the EC50 worked out at 10.5 nM. For the same compound, the half-inhibitory concentration (IC50) at recombinant human BACE-1 is greater than 100000 nM.
The compound `C[C@H](NC(=O)OC[C@H](c1ccc(Cl)c(-n2ncnc2C(F)F)c1)N1C(=N)N[C@](CC(C)(C)C)(c2ccc(-c3cnn(C(F)F)c3)cc2)C1=O)C(F)(F)F` [Compound 311] returned a half-life at 1 uM in data set [1] of no less than 6.58 h. Also, in data set [2] (setting [4]), the EC50 came out at 7.01 nM. Moreover, at recombinant human BACE-1, the IC50 is greater than 100000 nM.
Taken in the same sequence, the figures for `CC(C)(C)C[C@]1(c2ccc(-c3cnn(C(F)F)c3)cc2)NC(=N)N([C@H](COC(=O)NC2(C(F)(F)F)CC2)c2ccc(Cl)c(-n3cncn3)c2)C1=O` [Compound 236] were no less than 6.58 h, 10.6 nM and greater than 100000 nM.
As to `CC(C)(C)C[C@]1(c2ccc(-c3cnn(C(F)F)c3)cc2)NC(=N)N([C@H](COC(=O)NC2(C(F)(F)F)CC2)c2ccc(F)c(-n3ncnc3C(F)F)c2)C1=O` [Compound 380], the “Half-life in human liver microsomes” value in data set [1] (human liver microsomes 0.5 mg/mL, 1 uM compound, NADPH-regenerating system, 37° C.) is no less than 6.58 h. Further, the 50% effective concentration (EC50) in data set [2] (MT-4 cells) was 29.2 nM. Besides, the IC50 at recombinant HIV protease (setting [5]) was determined as 3.5 nM.
`CC(C)(C)C[C@]1(c2ccc(-c3cnn(C(F)F)c3)cc2)NC(=N)N([C@H](COC(=O)NC(C)(C)C(F)(F)F)c2ccc(Cl)c(-n3cncn3)c2)C1=O` [Compound 242] showed a half-life at 1 uM in data set [1] of no less than 6.58 h. Moreover, the EC50 in data set [2] (setting [4]) came out at 6.83 nM. Besides, the IC50 at recombinant human BACE-1 is greater than 100000 nM.
For `CC(C)(C)C[C@]1(c2ccc(-c3cnn(C4CC4)n3)cc2)NC(=N)N([C@H](COC(=O)NC2(C(F)(F)F)CC2)c2ccc(Cl)c(-n3ncnc3C(F)F)c2)C1=O` [Compound 223] the same measures were no less than 6.58 h, 13.1 nM and greater than 100000 nM.
In the case of `COC(=O)N[C@H](C(=O)N[C@@H](Cc1ccccc1)[C@@H](O)CN(Cc1ccc(-c2ccccn2)cc1)NC(=O)[C@@H](NC(=O)OC)C(C)(C)C)C(C)(C)C` [atazanavir, methyl N-[(2S)-1-[2-[(2S,3S)-2-hydroxy-3-[[(2S)-2-(methoxycarbonylamino)-3,3-dimethylbutanoyl]amino]-4-phenylbutyl]-2-[(4-pyridin-2-ylphenyl)methyl]hydrazinyl]-3,3-dimethyl-1-oxobutan-2-yl]carbamate], the “Fold change in EC50” value in data set [3] (Resistance mutations D30N L33F N88D L90M) was 5.27; in data set [3] (Resistance mutations L10F M46I I47V I50V I54V G73S I84V L90M) it was 30.0; in data set [3] (Resistance mutations L10F M46L I54V V82A I84V), greater than 101; in data set [3] (Resistance mutations L10F V32I M46I I47V I50V I54L I84V), 5.67; in data set [3] (Resistance mutations L10I L33F G48V I50L I54V/I V82A) it was 87.0; in data set [3] (Resistance mutations L10I L33F/L G48V G73S V82A) it was greater than 101. Moreover, the “Fold change in EC50” value in data set [3] (Resistance mutations L10I M46I I50V) was 1.99; in data set [3] (Resistance mutations L10I V32I L33F M46L I54L I84V L89V), 97.0; in data set [3] (Resistance mutations L10I V32I M46I I47V G48V I54M V82T L90M), 11.0; in data set [3] (Resistance mutations L10I V32I M46I I47V I50V I54L L90M), 36.0; in data set [3] (Resistance mutations L10V/L M46I I50L V82A), greater than 101; in data set [3] (Resistance mutations L33F M46I I50V L76V) it was 1.91. The same compound returned a half-life at 1 uM in data set [1] of 0.433 to 1.78 h.
As to `CC(C)(C)C[C@]1(c2ccc(-c3ccn(C4CC4)n3)cc2)NC(=N)N([C@H](COC(=O)NC2(C(F)(F)F)CC2)c2ccc(Cl)c(-n3ncnc3C(F)F)c2)C1=O` [Compound 214], the EC50 in data set [2] (setting [4]) turned out to be 11.5 nM. The concentration for half-maximal inhibition (IC50) on recombinant HIV protease was found to be 3 nM.
